Among the data in US20110269778A1, “NOVEL DIPHENYL PURINE DERIVATIVES USEFUL AS MODULATORS OF NICOTINIC ACETYLCHOLINE RECEPTORS” (NEUROSEARCH A/S, priority 2008, published 2011) are melting point, Emax and EC50 values, retold here.

In data set [1] the target is T1, wild-type nAChR α7 receptors (Homo sapiens, UniProt P36544).
T1 construct: expressed in transfected cells; host or cells: Xenopus laevis oocytes
Kind of data set: Positive modulation of wild-type nAChR α7 receptors expressed in Xenopus laevis oocytes, two-electrode voltage clamp. In kind it is cell-based. Particulars: for Emax: maximal modulation of the control response to 100 μM acetylcholine, (test-control)/control×100%, from fitted concentration response curve, read-out: EC50 Imax; for EC50: positive modulation of current induced by 100 μM acetylcholine, oocytes clamped at −60 mV, test compound 0.01-31.6 μM applied 30 s before and during acetylcholine. The procedure: In this example the positive modulation of wild-type nAChR α7 receptors by the compounds of the invention was determined using nAChR α7 receptors heterologously expressed in Xenopus laevis oocytes.
The electrical current through the nAChR α7 channel was measured using conventional two-electrode voltage clamp and nAChR α7 currents were activated by applying pulses of agonist-containing solution onto the nAChR α7 expressing oocyte.
In brief, the oocytes were placed in a recording chambers and continuously super-fused with an Oocyte Ringer (OR) solution containing 90 mM NaCl, 2.5 mM KCl, 2.5 mM CaCl2, 1 mM MgCl2 and 5 mM HEPES (pH adjusted to 7.4). The oocytes were clamped at −60 mV and currents were induced by applying 20 s pulses of 100 μM acetylcholine dissolved in OR. The intervals between the acetylcholine applications were 5 minutes, during which the oocytes were washed with OR. The first three applications were control applications to insure a constant response level of 100 μM acetylcholine. For the subsequent test applications, increasing concentrations (0.01-31.6 μM) of the test compound were applied 30 s before and during the acetylcholine (100 μM) application, which caused a robust increase in the acetylcholine-induced current amplitude.
The positive modulation in the presence of Compound 4 was calculated as (test-control)/control×100% and the concentration response curve for this positive modulation was fitted to the sigmoidal logistic equation: I=Imax/(1+(EC50/[compound])^n), where Imax represents the maximal modulation of the control response, EC50 is the concentration causing a half maximal response, and n is the slope coefficient.
On the technique in general: Two-electrode voltage clamp holds a large cell at a set potential and records current.

T1 sequence (P36544 23-502): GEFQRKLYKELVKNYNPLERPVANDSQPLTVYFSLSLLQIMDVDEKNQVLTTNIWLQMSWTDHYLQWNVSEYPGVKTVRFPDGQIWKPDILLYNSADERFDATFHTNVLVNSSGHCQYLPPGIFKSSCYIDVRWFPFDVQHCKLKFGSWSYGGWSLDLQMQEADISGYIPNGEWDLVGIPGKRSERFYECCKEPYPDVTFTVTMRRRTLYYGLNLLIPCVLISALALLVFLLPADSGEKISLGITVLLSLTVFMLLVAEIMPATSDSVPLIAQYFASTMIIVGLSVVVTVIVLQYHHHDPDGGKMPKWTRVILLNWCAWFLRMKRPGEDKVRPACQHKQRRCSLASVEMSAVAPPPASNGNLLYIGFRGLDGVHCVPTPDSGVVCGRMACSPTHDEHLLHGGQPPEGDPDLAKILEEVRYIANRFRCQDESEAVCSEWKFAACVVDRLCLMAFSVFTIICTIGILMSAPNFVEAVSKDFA

As a reminder, the melting point is the temperature, or range, at which the solid turns liquid. A word on the EC50: it is the concentration at which the effect is half-maximal. Lower therefore signals a more potent agent. `COc1ccc(-n2cnc3c(-c4ccc(C(F)(F)F)cc4F)ncnc32)cc1` [Compound 1, 6-(2-Fluoro-4-trifluoromethyl-phenyl)-9-(4-methoxy-phenyl)-9H-purine]: the melting point fell in the range of 181.4 to 182.8 °C. Further, in data set [1], the Emax stood at 45% and a half-maximal response (EC50) required 1.2 µM.
`Oc1ccc(-n2cnc3c(-c4ccc(C(F)(F)F)cc4F)ncnc32)cc1` [Compound 2, 4-[6-(2-Fluoro-4-trifluoromethyl-phenyl)-purin-9-yl]-phenol] gave a melting point of 205.2 to 206.4 °C. Besides, in data set [1], the Emax was found to be 120% and the EC50 stood at 5.8 µM.
In the case of `NS(=O)(=O)c1ccc(-n2cnc3c(-c4ccc(C(F)(F)F)cc4F)ncnc32)cc1` [Compound 3, 4-[6-(2-Fluoro-4-trifluoromethyl-phenyl)-purin-9-yl]-benzenesulfonamide], the melting point was 243.8 to 245 °C. Further, in data set [1], the Emax is 44% and it took 9.5 µM to reach a half-maximal effect (EC50).
With `COc1ccc(-n2c(=O)[nH]c3c(-c4ccc(C(F)(F)F)cc4F)ncnc32)cc1` [Compound 4, 6-(2-Fluoro-4-trifluoromethyl-phenyl)-9-(4-methoxy-phenyl)-7,9-dihydro-purin-8-one], the melting point was 295.9 to 297.2 °C. Besides, in data set [1], the Emax worked out at 1.6% and the EC50 turned out to be 3.2 µM.
`O=c1[nH]c2c(-c3ccc(C(F)(F)F)cc3F)ncnc2n1-c1ccc(O)cc1` [Compound 5, 6-(2-Fluoro-4-trifluoromethyl-phenyl)-9-(4-hydroxy-phenyl)-7,9-dihydro-purin-8-one]: the melting point was in the range of 276.4 to 277.9 °C. Further, in data set [1], the Emax came out at 82% and the midpoint of the response, the EC50, lay at 33 µM.
In turn, `COc1ccc(-n2nnc3c(-c4ccc(C(F)(F)F)cc4F)ncnc32)cc1` [Compound 6, 7-(2-Fluoro-4-trifluoromethyl-phenyl)-3-(4-methoxy-phenyl)-3H-[1,2,3]-triazolo[4,5-d]pyrimidine] yielded a melting point of 175.4 to 176.8 °C. In data set [1], the Emax stood at 7.3%.
`Oc1ccc(-n2nnc3c(-c4ccc(C(F)(F)F)cc4F)ncnc32)cc1` [Compound 7, 4-[7-(2-Fluoro-4-trifluoromethyl-phenyl)-[1,2,3]triazolo[4,5-d]pyrimidin-3-yl]-phenol] came in with a melting point of 210.2 to 211.8 °C. Further, in data set [1], the Emax came out at 28% and the EC50 is 5.9 µM.
